Source: US20100144683A1, “METHODS FOR GENERATING MAMMALIAN MODELS OF ATOPIC DISEASES, AND SCREENING FOR THEIR TREATMENT” (ASSOCIATION POUR LA RECHERCHE A L'IGBMC (ARI), priority 2006, published 2010)

Columns and labels:
TSLP [1] = experiment: TSLP RNA level (Q-PCR) in skin and organs after topical application of NR agonists; type: in vivo, mouse; settings: for TSLP RNA levels in ears at D18: 0.25 nmole per ear every second day, WT mice; for dose dependence of TSLP transcripts: increasing doses (MC903: 0.4, 1 or 4 nmoles per ear)
[2] = Calcemia and overall health upon topical application; type: in vivo; settings: 4 nmoles topically on ears, 4 consecutive days
Protocol: 1α,25-(OH)2D3, or MC903 and ethanol (vehicle) were applied to WT mouse right and left ears, respectively. Two shaved areas (1 cm^2 each) of dorsal skin were also treated with MC903 or ethanol. […]

TSLP [3] = experiment: TSLP RNA level (Q-PCR) in skin and organs after topical application of NR agonists; type: in vivo, mouse; settings: for increase in TSLP transcripts at D5 / effect on TSLP expression (Q-PCR): 4 nmoles in ethanol topically on whole ears of CD1 WT mice, D1 to D4, Q-PCR on day 5
Protocol: Four nmoles of ligands dissolved in ethanol were topically applied to whole ears of 6-8-week-old female CD1 wildtype (WT) mice for 4 consecutive days (D1 to D4), and TSLP RNA levels were determined on day 5.
1α,25-(OH)2D3, or MC903 and ethanol (vehicle) were applied to WT mouse right and left ears, respectively. Two shaved areas (1 cm^2 each) of dorsal skin were also treated with MC903 or ethanol.

[4] = system: ears of CD1 wildtype (WT) mice; experiment: AD-like phenotype upon long-term ear topical treatment (appearance, histology, IHC); type: in vivo, mouse
From the text: White arrows point to the dermal/epidermal junction. FIGS. 2a and b show the ear appearance at day 17 after ethanol and MC903 treatment, respectively. FIGS. 2c and d show hematoxylin and eosin-stained (HE) ear sections of ethanol- and MC903-treated mice at day 17, respectively. Eosinophil-selective cytoplasmic red staining is pointed by arrows in the inset of (d). FIG. 2 u show hematoxylin and eosin-stained (HE) ear sections of ethanol- and 1α,25(OH)2D3 treated mice every second day, at a dose of 0.25 nmole, at day 18 (D18). FIGS. 2 e to n show the result of IHC performed on ear sections from ethanol- or MC903-treated mice at D17, with antibodies against GR1 (e and f), CD3 (g and h), CD4 (i and j), CD8 (k and l) and CD11c (m and n). Yellow color corresponds to staining of antibodies, whereas blue corresponds to DAPI staining of nuclei. FIGS. 2 o and p show the Toluidin blue (TB)-staining of ear sections. Red arrows point to one of the mast cells with intense blue color in the dermis.

[5] = system: MC903-induced TSLP expression; experiment: RAR antagonist on MC903-induced TSLP RNA in ears; type: in vivo, mouse; settings: BMS493 2.5 nmoles with MC903 1.25 nmoles, daily on ears of CD1 WT mice, D3
Protocol: The RAR antagonist BMS493 (2.5 nmoles) with ethanol and with or without MC903 (1.25 nmoles) was daily topically-applied to ears of 6-8-week-old female CD1 (WT) mice. TSLP RNA levels in the ears were measured at D3.

[6] = system: ears of CD1 wildtype (WT) mice; experiment: AD-like phenotype upon long-term ear topical treatment (appearance, histology, IHC); type: in vivo, mouse; settings: topical treatment with the RAR agonist alone

With `C=C1/C(=C\C=C2/CCC[C@]3(C)[C@@H]([C@H](C)CCCC(C)(C)O)CC[C@@H]23)C[C@@H](O)C[C@@H]1O` [1α,25-(OH)2D3, 1,25-Dihydroxyvitamin D3] the “TSLP RNA levels in ears at D18” value (TSLP [1]) was “significantly induced”, the “TSLP RNA levels in ears at D18” value (TSLP [1]; listed as 1α,25(OH)2D3) was “increased” and the hypercalcemia and survival [2] was “hypercalcemia and death of the mice”. The “increase in TSLP transcripts at D5” value (TSLP [3]) was > 300 fold, the ear appearance ([4]; MC903 4 nmoles daily or 1α,25(OH)2D3 0.25 nmole every second day, from D5, D17) was “reddening and swelling, that worsened with time” and the “ear histology (hematoxylin/eosin)” value ([4]; MC903 4 nmoles daily, D17, 1α,25-(OH)2D3 0.25 nmole every other day, D18) was “inflammatory infiltrate comprising CD4+ T lymphocytes, dendritic cells, eosinophils and mast cells”.
In the case of `C[C@H](CCCC(C)(C)O)[C@H]1CC[C@H]2[C@@H]3CC=C4C[C@@H](O)CC[C@]4(C)[C@H]3CC[C@]12C` [25-hydroxycholesterol], the “effect on TSLP expression (Q-PCR)” value (TSLP [3]) is reported as “no effect”.
With `CC1(C)CC=C(C#Cc2ccccc2)c2cc(/C=C/c3ccc(C(=O)O)cc3)ccc21` [BMS493, (E)-4-[2-[5,6-Dihydro-5,5-dimethyl-8-(2-phenylethynyl)naphthalene-2-yl]ethen-1-yl]benzoic Acid] the “effect on MC903-induced TSLP expression” value [5] was “down-regulates”.
In the case of `CC1(C)CCC(C)(C)c2cc(C3(c4ccc(C(=O)O)cc4)OCCO3)ccc21` [BMS649], the “effect on TSLP expression (Q-PCR)” value (TSLP [3]) is reported as “no effect”.
For `CC1(C)CCC(C)(C)c2cc(C(O)C(=O)Nc3ccc(C(=O)O)cc3F)ccc21` (centres unmarked) [BMS961, R- and S-3-fluoro-4-[2-hydroxy-2-(5,5,8,8-tetramethyl-5,6,7,8,-tetrahydro-naphthalen-2-yl)-acetulamino]-benzoic acid], the “AD-like phenotype upon topical treatment on its own” value [6] was “too low to trigger an overt AD-like phenotype”, the “increase in TSLP transcripts at D5” value (TSLP [3]) was 5 fold and the “TSLP transcripts upon application on mouse ear skin” value (TSLP [3]; topical application on mouse ear skin) was “significant increase”.
For `C=C1/C(=C\C=C2/CCC[C@]3(C)[C@@H]([C@H](C)/C=C/C=C/C(O)(CC)CC)CC[C@@H]23)C[C@@H](O)C[C@@H]1O` [EB1089, 1(S),3(R)-dihydroxy-20(R)-(5′-ethyl-5′-hydroxy-hepta-1′(E),3′(E)-dien-1′-yl)-9,10-secopregna-5(Z),7(E),10(19)-triene], the “dose dependence of TSLP transcripts” value (TSLP [1]) was “similarly observed”.
With `CC(C)OC(=O)C(C)(C)Oc1ccc(C(=O)c2ccc(Cl)cc2)cc1` [Fenofibrate] the “effect on TSLP expression (Q-PCR)” value (TSLP [3]) was “no effect”.
For `Cc1cc(SCc2sc(-c3ccc(C(F)(F)F)cc3)nc2C)ccc1OCC(=O)O` [GW501516], the “effect on TSLP expression (Q-PCR)” value (TSLP [3]) was “no effect”.
In the case of `C=C1/C(=C\C=C2/CCC[C@]3(C)[C@@H]([C@@H](C)OCCCC(O)(CC)CC)CC[C@@H]23)C[C@@H](O)C[C@@H]1O` [KH1060, 1α,25-(OH),-20-epi-22-oxa-24,26,27-trishomovitamin D], the “dose dependence of TSLP transcripts” value (TSLP [1]) is reported as “similarly observed”.
For `CN(CCOc1ccc(CC2SC(=O)NC2=O)cc1)c1ccccn1` (centres unmarked) [Rosiglitazone], the “effect on TSLP expression (Q-PCR)” value (TSLP [3]) was “no effect”.
